Laboratory results: PubChem BioAssay AID1259407 (Chemical Carcinogenesis Research Information System (CCRIS), 2018)
The source made the active and inactive calls. How the calls were made is not given here.

Test system: CCRIS mutagenicity, Ames/micronucleus/aberration tests
Assay: CCRIS mutagenicity studies
[1] = Test System: AMES SALMONELLA TYPHIMURIUM, Strain/Indicator: TA98, Metabolic Activation: NONE, Method: STANDARD PLATE
[2] = Test System: AMES SALMONELLA TYPHIMURIUM, Strain/Indicator: TA98, Metabolic Activation: RAT, LIVER, S-9, AROCLOR 1254, Method: STANDARD PLATE

For `CN(C)c1ccc(Cc2ccc(N(C)C)cc2)cc1`, the mutagenic call (Test System: AMES SALMONELLA TYPHIMURIUM, Strain/Indicator: TA98, Metabolic Activation: HAMSTER, LIVER, S-9, AROCLOR 1254, Method: STANDARD PLATE) was “inactive; negative”, the mutagenic call (Test System: AMES SALMONELLA TYPHIMURIUM, Strain/Indicator: TA98, Metabolic Activation: HAMSTER, LIVER, S-9, Method: STANDARD PLATE) was “inactive; negative” and the mutagenic call (Test System: AMES SALMONELLA TYPHIMURIUM, Strain/Indicator: TA98, Metabolic Activation: MOUSE, LIVER, S-9, Method: STANDARD PLATE) was “inactive; negative”. For the same molecule, the mutagenic call [1] was “inactive; negative”, the mutagenic call [2] was “inactive; negative” and the mutagenic call (Test System: AMES SALMONELLA TYPHIMURIUM, Strain/Indicator: TA98, Metabolic Activation: RAT, LIVER, S-9, Method: STANDARD PLATE) was “inactive; negative”. For the same molecule, the mutagenic call (Test System: AMES SALMONELLA TYPHIMURIUM, Strain/Indicator: TA100, Metabolic Activation: HAMSTER, LIVER, S-9, AROCLOR 1254, Method: STANDARD PLATE) was “inactive; negative”, the mutagenic call (Test System: AMES SALMONELLA TYPHIMURIUM, Strain/Indicator: TA100, Metabolic Activation: HAMSTER, LIVER, S-9, Method: STANDARD PLATE) was “inactive; negative” and the mutagenic call (Test System: AMES SALMONELLA TYPHIMURIUM, Strain/Indicator: TA100, Metabolic Activation: MOUSE, LIVER, S-9, Method: STANDARD PLATE) was “inactive; negative”. For the same molecule, the mutagenic call (Test System: AMES SALMONELLA TYPHIMURIUM, Strain/Indicator: TA100, Metabolic Activation: NONE, Method: STANDARD PLATE) was “inactive; negative”, the mutagenic call (Test System: AMES SALMONELLA TYPHIMURIUM, Strain/Indicator: TA100, Metabolic Activation: RAT, LIVER, S-9, AROCLOR 1254, Method: STANDARD PLATE) was “inactive; negative” and the mutagenic call (Test System: AMES SALMONELLA TYPHIMURIUM, Strain/Indicator: TA100, Metabolic Activation: RAT, LIVER, S-9, Method: STANDARD PLATE) was “inactive; negative”. The mutagenic call (Test System: AMES SALMONELLA TYPHIMURIUM, Strain/Indicator: TA1535, Metabolic Activation: HAMSTER, LIVER, S-9, AROCLOR 1254, Method: STANDARD PLATE) was “inactive; negative”, the mutagenic call (Test System: AMES SALMONELLA TYPHIMURIUM, Strain/Indicator: TA1535, Metabolic Activation: HAMSTER, LIVER, S-9, Method: STANDARD PLATE) was “inactive; negative” and the mutagenic call (Test System: AMES SALMONELLA TYPHIMURIUM, Strain/Indicator: TA1535, Metabolic Activation: MOUSE, LIVER, S-9, AROCLOR 1254, Method: STANDARD PLATE) was “inactive; negative”. The mutagenic call (Test System: AMES SALMONELLA TYPHIMURIUM, Strain/Indicator: TA1535, Metabolic Activation: MOUSE, LIVER, S-9, Method: STANDARD PLATE) was “inactive; negative”, the mutagenic call (Test System: AMES SALMONELLA TYPHIMURIUM, Strain/Indicator: TA1535, Metabolic Activation: NONE, Method: STANDARD PLATE) was “inactive; negative” and the mutagenic call (Test System: AMES SALMONELLA TYPHIMURIUM, Strain/Indicator: TA1535, Metabolic Activation: RAT, LIVER, S-9, AROCLOR 1254, Method: STANDARD PLATE) was “inactive; negative”. For the same molecule, the mutagenic call (Test System: AMES SALMONELLA TYPHIMURIUM, Strain/Indicator: TA1535, Metabolic Activation: RAT, LIVER, S-9, Method: STANDARD PLATE) was “inactive; negative”, the mutagenic call (Test System: AMES SALMONELLA TYPHIMURIUM, Strain/Indicator: TA1537, Metabolic Activation: HAMSTER, LIVER, S-9, AROCLOR 1254, Method: STANDARD PLATE) was “inactive; negative” and the mutagenic call (Test System: AMES SALMONELLA TYPHIMURIUM, Strain/Indicator: TA1537, Metabolic Activation: HAMSTER, LIVER, S-9, Method: STANDARD PLATE) was “inactive; negative”. The mutagenic call (Test System: AMES SALMONELLA TYPHIMURIUM, Strain/Indicator: TA1537, Metabolic Activation: MOUSE, LIVER, S-9, AROCLOR 1254, Method: STANDARD PLATE) was “inactive; negative”, the mutagenic call (Test System: AMES SALMONELLA TYPHIMURIUM, Strain/Indicator: TA1537, Metabolic Activation: MOUSE, LIVER, S-9, Method: STANDARD PLATE) was “inactive; negative” and the mutagenic call (Test System: AMES SALMONELLA TYPHIMURIUM, Strain/Indicator: TA1537, Metabolic Activation: NONE, Method: STANDARD PLATE) was “inactive; negative”. For the same molecule, the mutagenic call (Test System: AMES SALMONELLA TYPHIMURIUM, Strain/Indicator: TA1537, Metabolic Activation: RAT, LIVER, S-9, AROCLOR 1254, Method: STANDARD PLATE) was “inactive; negative”, the mutagenic call (Test System: AMES SALMONELLA TYPHIMURIUM, Strain/Indicator: TA1537, Metabolic Activation: RAT, LIVER, S-9, Method: STANDARD PLATE) was “inactive; negative” and the mutagenic call (Test System: AMES SALMONELLA TYPHIMURIUM, Strain/Indicator: TA1538, Metabolic Activation: HAMSTER, LIVER, S-9, Method: STANDARD PLATE) was “inactive; negative”. The mutagenic call (Test System: AMES SALMONELLA TYPHIMURIUM, Strain/Indicator: TA1538, Metabolic Activation: MOUSE, LIVER, S-9, AROCLOR 1254, Method: STANDARD PLATE) was “inactive; negative”, the mutagenic call (Test System: AMES SALMONELLA TYPHIMURIUM, Strain/Indicator: TA1538, Metabolic Activation: MOUSE, LIVER, S-9, Method: STANDARD PLATE) was “inactive; negative” and the mutagenic call (Test System: AMES SALMONELLA TYPHIMURIUM, Strain/Indicator: TA1538, Metabolic Activation: NONE, Method: STANDARD PLATE) was “inactive; negative”. The mutagenic call (Test System: AMES SALMONELLA TYPHIMURIUM, Strain/Indicator: TA1538, Metabolic Activation: RAT, LIVER, S-9, AROCLOR 1254, Method: STANDARD PLATE) was “inactive; negative”, the mutagenic call (Test System: AMES SALMONELLA TYPHIMURIUM, Strain/Indicator: TA1538, Metabolic Activation: RAT, LIVER, S-9, Method: STANDARD PLATE) was “inactive; negative” and the mutagenic call (Test System: E. COLI, Strain/Indicator: WP2 UVRA, Metabolic Activation: HAMSTER, LIVER, S-9, AROCLOR 1254, Method: STANDARD PLATE) was “inactive; negative”. The mutagenic call (Test System: E. COLI, Strain/Indicator: WP2 UVRA, Metabolic Activation: HAMSTER, LIVER, S-9, Method: STANDARD PLATE) was “inactive; negative”, the mutagenic call (Test System: E. COLI, Strain/Indicator: WP2 UVRA, Metabolic Activation: MOUSE, LIVER, S-9, AROCLOR 1254, Method: STANDARD PLATE) was “inactive; negative” and the mutagenic call (Test System: E. COLI, Strain/Indicator: WP2 UVRA, Metabolic Activation: MOUSE, LIVER, S-9, Method: STANDARD PLATE) was “inactive; negative”. For the same molecule, the mutagenic call (Test System: E. COLI, Strain/Indicator: WP2 UVRA, Metabolic Activation: NONE, Method: STANDARD PLATE) was “inactive; negative”, the mutagenic call (Test System: E. COLI, Strain/Indicator: WP2 UVRA, Metabolic Activation: RAT, LIVER, S-9, AROCLOR 1254, Method: STANDARD PLATE) was “inactive; negative” and the mutagenic call (Test System: E. COLI, Strain/Indicator: WP2 UVRA, Metabolic Activation: RAT, LIVER, S-9, Method: STANDARD PLATE) was “inactive; negative”. The mutagenic call (Test System: MOUSE LYMPHOMA, Strain/Indicator: L5178Y (TK+/TK-), Metabolic Activation: RAT, LIVER, S-9, AROCLOR 1254, Method: SUSPENSION/PLATE) was “active; positive”.

With `COc1cc([N+](=O)[O-])ccc1NC(C)=O` the mutagenic call [1] was “active; positive” and the mutagenic call [2] was “inactive; negative”.
